Measured values taken from paper PMC11396839, “Structure-Aided Computational Design of Triazole-Based Targeted Covalent Inhibitors of Cruzipain” (Molecules, 2024).
“And” between values parts separate entries of the source, which are not always exact repeats. Equal entries are not always repeated. Where two headings read alike, the source gives them in different places.

Columns and labels:
[1] = biological target: T1, recombinant human cathepsin L (hCatL) (Homo sapiens, UniProt P07711); assay: hCatL screening, cleavage of Z-FR-AMC; format: biochemical; conditions: for selectivity for CZP over hCatL in words: 100 μM; for inhibition at 100 µM: 10 min incubation, read-out: % hCatL inhib.
T1 construct: purchased Sigma-Aldrich
T1 sequence (P07711 114-333): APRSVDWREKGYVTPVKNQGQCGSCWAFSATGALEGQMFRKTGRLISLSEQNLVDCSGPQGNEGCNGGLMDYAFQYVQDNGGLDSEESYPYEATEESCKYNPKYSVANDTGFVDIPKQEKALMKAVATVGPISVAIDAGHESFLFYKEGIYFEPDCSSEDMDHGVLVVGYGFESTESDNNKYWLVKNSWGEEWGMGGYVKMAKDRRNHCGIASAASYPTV
Method: The recombinant human cathepsin L (hCatL) (Sigma-Aldrich) was activated prior to the assays. First, 10 ng/ μ L of the enzyme was incubated in the activation buffer (50 mM MES, pH 6, 1 mM EDTA, 5mM DTT) for 30 min at 37 °C. hCatL activity was measured based on the cleavage of the fluorescent substrate Z-FR-AMC in a Biotec 87 Synergy 2 fluorimeter at the Multiuser Laboratory of the Biochemistry and Immunology Department (UFMG, Brazil). The assays were executed in 96-well round bottom black plates in 50 mM MES buffer, pH 6, containing 1 mM EDTA, 5 mM DTT, 0.001% Triton-X100, 5 pg/ μ L enzyme and 25 μ M Z-FR-AMC at 37 °C. The triazole-based derivatives were tested against hCatL, at 100 μ M, with a 10 min pre-incubation with the enzyme. The initial velocities of the DMSO control were compared to those in the presence of the compounds. Assays were executed in triplicate in two independent experiments, and enzyme activity was measured for 20 min.

Vero cells = assay: Cytotoxicity assay, Alamar blue; format: cell-based; conditions: 50 μM, 96 h incubation
Method: To evaluate the viability of Vero cells, the Alamar blue method was followed. First, 10^4 Vero cells/well in 100 μ L MEM-10% FBS were seeded in 96-well culture plates. After 24 h, 50 μ M inhibitor solution was added to cell monolayers and incubated for 96 h. After incubation, resazurin solution (final concentration 10 μ g·mL^−1) was added to each well, and fluorescence was measured after 2 h in a Synergy HTX multi-mode microplate reader (Biotek Instruments, Winooski, VT, USA) using the […] filters. Each condition was tested in triplicate and in at least three independent experiments.

[2] = biological target: T2, recombinant CZP (cruzain) (Trypanosoma cruzi, UniProt P25779); assay: CZP inhibition, cleavage of fluorogenic substrate Z-FR-AMC (initial screening and IC50); format: biochemical, T. cruzi
T2 construct: gift of Allison Doak and Prof; Brian Shoichet (University of California San Francisco)
T2 sequence (P25779 123-337): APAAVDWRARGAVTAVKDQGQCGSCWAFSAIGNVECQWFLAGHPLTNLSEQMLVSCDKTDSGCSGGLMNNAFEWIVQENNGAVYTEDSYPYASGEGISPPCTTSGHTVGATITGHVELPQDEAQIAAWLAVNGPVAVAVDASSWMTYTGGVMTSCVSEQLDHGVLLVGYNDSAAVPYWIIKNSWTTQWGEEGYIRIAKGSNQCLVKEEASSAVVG
Method: The previously reported methods were followed to evaluate the in vitro activity against CZP [91, 92, 93, 94]. Allison Doak and Prof. Brian Shoichet (University of California San Francisco, San Francisco, CA, USA) generously provided recombinant CZP (cruzain). The enzyme activity was measured by monitoring the cleavage of the fluorogenic substrate Z-FR-AMC at 25 °C. Unless stated otherwise, assays were performed using 2.5 μ M of substrate ( KM = 0.5 ± 0.1 μ M) and 0.5 nM CZP in a 0.1 M sodium acetate buffer, pH 5.5, 0.01% Triton X-100 and 2 mM β -mercaptoethanol. DMSO and 1 μ M E-64 were employed as negative and positive controls, respectively, in all assays. Fluorescence was monitored at 340/440 nm (excitation/emission) over time in a Biotec 87 Synergy 2 fluorimeter at the Multiuser Laboratory of the Biochemistry and Immunology Department (UFMG, Belo Horizonte, Brazil). All assays were performed in triplicate in two independent experiments.
Initial screening. For the initial screening against CZP, compounds at 100 μ M were tested against CZP with and without a 10min pre-incubation with the enzyme. The fluorescence was monitored for 10 min at 5 s intervals. DMSO and E-64 were employed in all assays as negative and positive controls, respectively. Initial velocities of the negative control (DMSO) were compared to those in the presence of compounds to calculate the percentage of inhibition. The reported values correspond to the mean and standard error of the mean (SEM) of experiments performed in triplicate in two independent experiments.
IC50 determination. Compounds in at least eight distinct compound concentrations (400 μ M, 100 μ M, 25 μ M, 6.25 μ M, 1.5 μ M, 0.4 μ M, 0.1 μ M and 0.025 μ M) were incubated with CZP for 10 min, and once the substrate was added, the fluorescence was monitored for 10 min at 5 s intervals. IC50 curves were obtained from a non-linear fit of the inhibition values versus the logarithmic concentration of the compounds. The reported IC50 values are the mean and SEM of two independent measurements performed in triplicate.

CZP [3] = biological target: T3, CZP (Trypanosoma cruzi, UniProt P25779); assay: Aggregation assays (Triton X-100 sensitivity, BSA preincubation) on CZP; format: biochemical, T. cruzi; conditions: for CZP activity inhibition percentage, Triton 0% + BSA: compound at its IC50, 10-min preincubation with 4 mg/mL BSA; for CZP activity inhibition percentage, Triton 0% / CZP activity inhibition percentage, Triton 0.01% / CZP activity inhibition percentage, Triton 0.1%: compound at its IC50, 10 min preincubation
T3 construct: gift of Allison Doak and Prof; Brian Shoichet (University of California San Francisco)
T3 sequence (P25779 123-337): as above
Method: Aggregation Assays. To evaluate detergent sensitivity, CZP was pre-incubated with compounds at their IC50 for 10 min at room temperature in varying concentrations of Triton X-100 (0%, 0.1% and 0.01%). […] For comparison, the four conditions were assayed in parallel. Aggregation was excluded when the difference in inhibition percentages between the different conditions was less than 20%.

[4] = system: T. cruzi (Tulahuen trypomastigotes overexpressing β-galactosidase) in Vero cells; assay: T. cruzi inhibition assay, infection model in Vero cells, β-galactosidase activity; format: cell-based, Trypanosoma cruzi; conditions: for anti-T. cruzi/cytotoxicity balance in words: 50 μM (Ald-4 20 μM)
Method: To perform the assay, the drug screening method reported by Buckner et al. was adapted. Vero cells were seeded at 1 × 10^4 per well on 96-well culture plates in 100 μ L MEM-5% FBS. Tulahuen trypomastigotes overexpressing the E. coli β -galactosidase protein were distributed in triplicates on the plate. After a 2 h incubation at 37 °C, the culture media were extracted and replaced with fresh MEM-5% FBS with 1 μ M, 10 μ M or 50 μ M solutions of the triazole-based inhibitors, and the plate was incubated another 72 h at 37 °C. Ninety-six hours post infection, the cell culture media were removed and cells and intracellular amastigotes were lysed in 100 μ L lysis buffer (25 mM Tris pH 8, 2 mM EDTA, 2 mM DTT, 1% Triton X-100, 10% glycerol in ultrapure MQ water) for 10 min at 37 °C. Then, 100 μ L 2× reaction buffer (200 mM sodium phosphate pH 8, 2 mM MgCl2, 100 mM 2-mercaptoethanol and 1.33 mg.mL^−1 o-nitrophenyl- β -galactoside (ONPG)) was added and the reaction was allowed to proceed until a yellow color developed (1–2 h at 37 °C). The absorbance at 420 nm was measured in a Synergy HTX multi-mode microplate reader (Biotek Instruments, Winooski, VT, USA) and normalized to the value obtained for the infection in the absence of inhibitors. To determine its IC50, Ald-6 was evaluated at nine different concentrations (0.098, 0.195, 0.39, 0.78, 1.56 3.13 6.25, 12.5 and 50.0 μ M), following the same protocol. Each infection condition and inhibitor were tested in triplicates in four independent experiments.

[5] = system: T. cruzi (Tulahuen trypomastigotes overexpressing β-galactosidase) in Vero cells; assay: as above; format: cell-based, Trypanosoma cruzi; conditions: 50 μM, 72 h p.i.
CZP [6] = biological target: T3, CZP; assay: Jump dilution assay on CZP; format: biochemical, T. cruzi; conditions: for slope of progress curve relative to control (DMSO): 10 × IC50 with 100 × [CZP] 30 min, 100× dilution, 2 h monitoring; for mode of CZP inhibition from jump dilution: in words
Method: Jump dilution assay. […] Fluorescence intensities were monitored continuously for 2 h.

T. cruzi = system: T. cruzi; parameters: method as in PMID 18435536, PMID 9705954, PMID 20088534; conditions: cited from earlier work
CZP [7] = biological target: T3, CZP; assay: Mechanism of CZP inhibition (Michaelis-Menten, Lineweaver-Burk); format: biochemical, T. cruzi
Method: Mechanism of inhibition. […] The results were calculated by nonlinear (Michaelis–Menten) and linear regression (Lineweaver–Burk plots). The effect of the inhibitor concentration on the KMapp and its Ki was evaluated by the general linear F-test.

[8] = 100 μM, 10 min pre-incubation of the enzyme with compound, read-out: % CZP inh.
[9] = read-out: % CZP inhib. wo/inc., 100 μM, without prior incubation
[10] = 10 min incubation with CZP, mean ± SEM of two independent experiments, read-out: IC50 (μM) against CZP

Row | SMILES | selectivity for CZP over hCatL in words [1] | inhibition at 100 µM [1] [%] | cytotoxicity, uninfected Vero cell viability in words (Vero cells) | inhibition at 100 µM [2, 8] [%] | CZP activity inhibition percentage, Triton 0% + BSA (CZP [3]) [%] | CZP activity inhibition percentage, Triton 0% (CZP [3]) [%] | CZP activity inhibition percentage, Triton 0.01% (CZP [3]) [%] | CZP activity inhibition percentage, Triton 0.1% (CZP [3]) [%] | anti-T. cruzi/cytotoxicity balance in words [4] | reduction of infection [5] [%] | inhibition at 100 µM [2, 9] [%] | slope of progress curve relative to control (DMSO) (CZP [6]) | mode of CZP inhibition from jump dilution (CZP [6]) | IC50 (T. cruzi) | IC50 [2, 10] [µM] | also measured
1 | COC(=O)C(CS)n1cc(C(NCc2ccc3c(c2)OCO3)C2CCCCC2)nn1 (stereo not drawn) [Es-14] | selective CZP inhibitors | 0 | significantly reduced cell viability | ≥ 47 | – | – | – | – | – | – | – | – | – | – | – | –
2 | O=CC(CO)n1cc(C(NCc2ccc3c(c2)OCO3)C2CCCCC2)nn1 (stereo not drawn) [Ald-10] | selective CZP inhibitors | 7 ± 2 | low cytotoxicity | 87 ± 1 | 43± 2 | 47± 6 | 43± 2 | 46± 8 | acceptable anti-T. cruzi/cytotoxicity balance | 97 | 21 ± 1 | ~24% | covalent irreversible inhibition | – | – | reduction of T. cruzi viability ([4]; 10 μM): 38%; IC50 [2]: 3.4 ± 0.5 µM
3 | CN1CCN(C(=O)N[C@@H](Cc2ccccc2)C(=O)N[C@H](/C=C/S(=O)(=O)c2ccccc2)CCc2ccccc2)CC1 [K777] | – | – | – | – | – | – | – | – | – | – | – | – | – | ~10 µM and 10 µM | – | –
4 | COC(=O)C(CCCNC(=N)N)n1cc(C(NCc2ccc3c(c2)OCO3)C2CCCCC2)nn1 (stereo not drawn) [Es-15] | selective CZP inhibitors | 26 ± 16 | – | – | 40± 3 | 44± 5 | 41± 1 | 36± 7 | acceptable anti-T. cruzi/cytotoxicity balance | – | – | – | – | – | 6.8 ± 0.3 | Ki (CZP [7]; calculated, general linear F-test p = 0.0127): 3 ± 1 µM; mechanism of CZP inhibition (CZP [7]; in words): mixed mechanism of inhibition; α value (CZP [7]; mixed-model fit of Michaelis-Menten data): 8.3; inhibition at 100 µM ([2]; 100 μM, without prior incubation, read-out: % CZP inhib. wo/inc.): 81 ± 2%
5 | NCCCCC(C=O)n1cc(C(NCc2ccc3c(c2)OCO3)C2CCCCC2)nn1 (stereo not drawn) [Ald-6] | selective CZP inhibitors | 26 ± 5 | low cytotoxicity | 81 ± 2 | 37± 3 | 43± 5 | 31± 3 | 44± 4 | acceptable anti-T. cruzi/cytotoxicity balance | 97 | 18 ± 3 | about 12% | covalent irreversible inhibition | – | 3.3 ± 0.3 | reduction in T. cruzi infection ([4]; 1 μM): 27%; parasite survival ([4]; 10 μM, after 72 h of incubation): 7%; IC50 ([4]; Trypanosoma cruzi, TULAHUEN, Vero, read-out: IC50^Tc): 3.2 ± 0.4 µM; IC50^Tc/IC50^CZP ratio ([4]; translation ratio): 0.97 ± 0.16
6 | CCCCC(C(=O)COc1c(F)c(F)cc(F)c1F)n1cc([C@@](C)(NCc2ccc3ncccc3c2)C(C)C)nn1 (stereo partly drawn) [Ts-370] | – | – | – | – | – | – | – | – | – | – | – | – | – | 5.1 µM | – | –
